The values that follow come from US20240254157A1, “MACROLIDE COMPOUNDS” (VANDERBILT UNIVERSITY, priority 2021, published 2024).

Assay [1] relates to primary AML patient samples. Kind of assay: Cell viability GI50 against primary AML patient samples (CellTiter-Glo). It counts as cell-based. As to the method:
Compounds were diluted in DMSO (<0.05% DMSO) and dispensed into a 384-well plate using the Echo 555 liquid handler (Labcyte). Following the addition of compounds, cells were pipetted into the 384-well plates at a concentration of between 2,000 and 8,000 cells per well in IMDM or RPMI media, as noted above, supplemented with 10% FBS and incubated at 37° C., 5% CO2 in a tissue culture incubator. Plates were incubated for 48 hours, and cell viability was measured using the CellTiter-Glo reagent (Promega). Percent viability was defined as relative luminescence units (RLU) of each well divided by the RLU of cells in DMSO control. Dose-response curves and GI50 values were determined using linear regression of double-log transformed data (GraphPad Prism version 6.0 h). Control bone marrow-derived CD34+ cells were purchased from STEMCELL Technologies.

Assay [2] concerns MV-4-11 cell line derived xenograft. Kind of assay: MV-4-11 cell line derived xenograft model. It counts as in vivo.
Assay [3] has as its system E1A oncogene transformed cell lines. As to conditions: cited from earlier work.
In assay [4] the test system is NCI-60 cell lines that do not exhibit the Warburg effect. As to conditions: cited from earlier work.
The subject of another assay is untransformed lines. The following applies: cited from earlier work.

Like-named read-outs stand apart in the source and are kept apart here.

For the compound `COCCC[C@H]1O[C@@](O)([C@H](C)[C@@H]2C[C@H](OC)[C@H](O)\C=C(C)/C=C(C)\C=C(\C)[C@@H](O[C@@H]3O[C@@H](C)[C@H](O)[C@@H](O)[C@@H]3O)[C@H](C)\C=C(C)/C=C(OC)\C=C(\C)C(=O)O2)[C@H](OC)[C@@H](O)[C@]1(C)O[C@H]1C[C@H](O)[C@H](O[C@H]2C[C@@](C)(O)[C@H](O)[C@@H](C)O2)[C@@H](C)O1` [ammocidin A], the GI50 in assay [1] (patient sample 17-03-006, data collected Jul. 8, 2021, read-out: GI50 from double log regression (converted)) is 32.1 nM; in assay [1] (patient sample 17-03-006, data collected Jul. 8, 2021, read-out: viability GI50 from Prism), 10.3 nM; in assay [1] (patient sample 17-03-006, data collected Mar. 8, 2022, read-out: GI50 from double log regression (converted)), 30.8 nM; in assay [1] (patient sample 17-03-006, data collected Mar. 8, 2022, read-out: viability GI50 from Prism), 9.5 nM; in assay [1] (patient sample 18-12-001, data collected Jul. 8, 2021, read-out: GI50 from double log regression (converted)), 31.2 nM; in assay [1] (patient sample 18-12-001, data collected Jul. 8, 2021, read-out: viability GI50 from Prism) it was 30.2 nM. Further, the GI50 in assay [1] (patient sample 18-12-001, data collected Mar. 8, 2022, read-out: GI50 from double log regression (converted)) was 75.4 nM; in assay [1] (patient sample 29-09-002, data collected Jul. 8, 2021, read-out: GI50 from double log regression (converted)), 21.7 nM; in assay [1] (patient sample 29-09-002, data collected Jul. 8, 2021, read-out: viability GI50 from Prism), 15.8 nM. Also, in assay [2], the “efficacy in xenograft model” value is on record as “comparable efficacy”.
`COC[C@@H](C[C@H]1O[C@@](O)([C@H](O)[C@@H]2C[C@H](OC)[C@@H](O)CC/C=C(C)/C=C/[C@@H](O[C@@H]3O[C@@H](C)[C@H](OC)[C@@H](O)[C@@H]3O)[C@H](C)/C=C(C)/C=C(C)/C=C(\C)C(=O)O2)[C@H](C)[C@@H](O)[C@H]1C)OC1C[C@](C)(O)[C@@H](O[C@H]2C[C@@H](OC)[C@H](O)[C@@H](C)O2)[C@H](C)O1` (some centres unmarked) [apoptolidin, Apoptolidin A]: the “potency against transformed cells” value in assay [3] (transformed cells) is 10 nM. In assay [3] (transformed vs untransformed), the “fold more potent against transformed cells than untransformed lines” value is reported as 1,000 fold. Also, the “activity in NCI-60 cell lines relying on oxidative phosphorylation” value in assay [4] is listed as “low nanomolar”. Further, in the assay on untransformed lines, the “potency against untransformed lines” value is 10000 nM.

In general, GI50 refers to the concentration that inhibits growth by half.
